Assay results: US20250115597A1, “TYK2 INHIBITORS AND COMPOSITIONS AND METHODS THEREOF” (LYNK PHARMACEUTICALS CO. LTD., priority 2021, published 2025)
Where two headings read alike, the source gives them in different places.

How the values were obtained:
[1] = Microsomal metabolic stability assay; assay type: in vitro ADME; conditions: pH 7.4, 0.5 mg/mL protein, 1 μM compound
Method: Microsomal Metabolic Stability Assay
Microsomes were pre-incubated with test compound or control compounds for 5 min at 37° C. in 100 mM potassium phosphate buffer, pH 7.4, 1.0 mM EDTA. The reaction was initiated by addition of 15 μL of the NADPH regenerating system to 30 μL of each incubation mixture per time point. The final incubation condition was composed of 0.5 mg/mL microsomal protein, 1 μM test article/positive control, 2 mM NADPH. The 0-minute samples were prepared by addition of a 30 μL aliquot of each incubation mixture to 135 μL quench reagent to precipitate proteins. And then a 15 μL aliquot of the NADPH regenerating system was added. At 5, 15, 30 and 45 minutes, the reaction will be stopped by the addition of cold acetonitrile solution containing internal standard. The samples taken at all time points were centrifuged at 5000×g for 15 minutes. 50 μL of supernatant are taken into 96-well assay plates pre-added with 50 μL ultrapure water, and then analyzed by LC/MS/MS.
Concentrations of test articles, control compounds in the samples were determined by using LC/MS/MS method. Plotting of the chromatograms and peak area integrations are carried out by Analyst (AB Sciex).
n the determination of the in vitro elimination constant (ke) of the control compounds, the analyte/internal standard peak area ratios will be converted to percentage remaining (% Remaining) with the following equation: […]
The slope was measured by the natural logarithm of the percentage of the residual compound and time, T1/2 was calculated according to the following formula.

[2] = molecular target: T1, Ba/F3-FL-TYK2-P760L cells (Homo sapiens, UniProt P29597, P760L, cells depend on it); test: Anti-proliferative assay, Ba/F3-FL-TYK2-P760L cells (Cell-Titer Glo); assay type: cell-based; conditions: 72 h, read-out: BaF3-FL-T2P760L IC50
T1 construct: BaF3-FL-T2P760L (nM)
Procedure, shortened: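 Ba/F3 cells made IL-3-independent by TEL-fused or full-length mutant JAK-family kinases, seeded at 2000/well and dosed after 24 h with 9 three-fold dilutions topping at 20 μM. Viability after 72 h at 37 °C, 5% CO2 by Cell-Titer Glo ATP luminescence.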

[3] = dog liver microsomes, read-out: Dog LM Clint
[4] = dog liver microsomes, read-out: Dog LM T½
[5] = human liver microsomes, read-out: Human LM Clint
[6] = human liver microsomes, read-out: Human LM T½
[7] = rat liver microsomes, read-out: Rat LM Clint
[8] = rat liver microsomes, read-out: Rat LM T½

T1 sequence (P29597 whole entry P760L): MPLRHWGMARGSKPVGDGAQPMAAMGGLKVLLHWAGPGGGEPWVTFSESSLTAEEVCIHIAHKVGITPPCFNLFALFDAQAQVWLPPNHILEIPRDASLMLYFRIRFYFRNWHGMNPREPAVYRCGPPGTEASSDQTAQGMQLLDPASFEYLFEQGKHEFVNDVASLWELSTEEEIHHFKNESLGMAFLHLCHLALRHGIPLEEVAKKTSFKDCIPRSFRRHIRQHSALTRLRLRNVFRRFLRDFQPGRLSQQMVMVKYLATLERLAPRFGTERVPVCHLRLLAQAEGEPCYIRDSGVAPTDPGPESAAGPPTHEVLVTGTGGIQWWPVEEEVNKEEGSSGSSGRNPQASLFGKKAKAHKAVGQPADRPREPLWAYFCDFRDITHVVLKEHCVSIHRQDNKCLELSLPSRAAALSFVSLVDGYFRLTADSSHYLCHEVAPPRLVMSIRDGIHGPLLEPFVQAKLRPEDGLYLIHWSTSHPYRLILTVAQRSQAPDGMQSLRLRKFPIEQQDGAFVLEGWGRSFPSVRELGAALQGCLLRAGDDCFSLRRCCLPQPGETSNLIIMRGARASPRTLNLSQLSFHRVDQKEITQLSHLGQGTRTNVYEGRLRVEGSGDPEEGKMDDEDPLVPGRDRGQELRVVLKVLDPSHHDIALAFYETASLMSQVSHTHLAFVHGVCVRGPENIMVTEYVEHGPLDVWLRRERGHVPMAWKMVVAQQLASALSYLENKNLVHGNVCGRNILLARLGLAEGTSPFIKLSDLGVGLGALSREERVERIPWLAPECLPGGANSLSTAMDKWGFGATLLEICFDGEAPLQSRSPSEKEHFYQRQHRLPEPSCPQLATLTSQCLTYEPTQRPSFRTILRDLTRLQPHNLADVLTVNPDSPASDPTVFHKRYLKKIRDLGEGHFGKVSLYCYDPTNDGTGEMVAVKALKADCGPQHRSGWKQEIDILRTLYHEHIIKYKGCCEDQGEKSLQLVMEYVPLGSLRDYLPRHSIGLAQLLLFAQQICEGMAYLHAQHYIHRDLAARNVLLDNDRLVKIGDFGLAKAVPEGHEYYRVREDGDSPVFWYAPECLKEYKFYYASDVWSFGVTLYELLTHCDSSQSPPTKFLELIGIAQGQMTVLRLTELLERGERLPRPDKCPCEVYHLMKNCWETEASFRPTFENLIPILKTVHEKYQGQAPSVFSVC

Compound | microsomal CLint at 1 μM [1, 3] [µL/min/mg] | half-life at 1 μM [1, 4] [h] | microsomal CLint at 1 μM [1, 5] [µL/min/mg] | half-life at 1 μM [1, 6] [h] | microsomal CLint at 1 μM [1, 7] [µL/min/mg] | half-life at 1 μM [1, 8] [h] | GI50 [2] [nM]
[2H]C([2H])([2H])NC(=O)c1cnc(NC(=O)C2CC2)cc1Nc1ccc2nnc(CC)n2c1OC [Example 58, 6-(Cyclopropanecarboxamido)-4-((3-ethyl-5-methoxy-[1,2,4]triazolo[4,3-a]pyridin-6-yl)amino)-N-(methyl-d3)nicotinamide] | < 11.5 | > 2 | < 11.5 | > 2 | < 11.5 | > 2 | > 5000
[2H]C([2H])([2H])NC(=O)c1cnc(NC(=O)C2CC2)cc1Nc1cc(F)c2cnn(CC)c2c1OC [Example 147, 6-(Cyclopropanecarboxamido)-4-((1-ethyl-4-fluoro-7-methoxy-1H-indazol-6-yl)amino)-N-(methyl-d3)nicotinamide] | 54.4 | 0.425 | 59 | 0.392 | 124 | 0.185 | 175
[2H]C([2H])([2H])NC(=O)c1cnc(NC(=O)C2CC2)cc1Nc1cnn2ccn(CC(F)(F)F)c(=O)c12 [Example 45, 6-(Cyclopropanecarboxamido)-N-(methyl-d3)-4-((4-oxo-5-(2,2,2-trifluoroethyl)-4,5-dihydropyrazolo[1,5-a]pyrazin-3-yl)amino)nicotinamide] | 8.76 | 2.64 | 51.9 | 0.445 | 110 | 0.21 | 160
[2H]C([2H])([2H])NC(=O)c1nnc2cc1Nc1cc(cc(-n3cnc(C)n3)c1OC)COCc1nc(ccc1F)N2 [Example 75, 18-Fluoro-10-methoxy-N-(methyl-d3)-11-(3-methyl-1H-1,2,4-triazol-1-yl)-15-oxa-2,4,5,8,21-pentaazatetracyclo[15.3.1.1^{3,7}.1^{9,13}]tricosa-1(20),3,5,7(23),9(22),10,12,17(21),18-nonaene-6-carboxamide] | 37.7 | 0.613 | 21.8 | 1.06 | 22.6 | 1.02 | 108
CNC(=O)c1cnc(Nc2ccc(F)cn2)cc1Nc1cn(C)c2ccn(C)c(=O)c12 [Example 11, 4-((1,5-Dimethyl-4-oxo-4,5-dihydro-1H-pyrrolo[3,2-c]pyridin-3-yl)amino)-6-((5-fluoropyridin-2-yl)amino)-N-methylnicotinamide] |  |  | 74 | 0.312 | 30.6 | 0.755 | 124
CNC(=O)c1cnc(NC(=O)C2CC2)cc1Nc1cn(C)c2ccn(C)c(=O)c12 [Example 12, 6-(Cyclopropanecarboxamido)-4-((1,5-dimethyl-4-oxo-4,5-dihydro-1H-pyrrolo[3,2-c]pyridin-3-yl)amino)-N-methylnicotinamide] |  |  | 25.8 | 0.895 | 16.4 | 1.41 | 416

These reach a lower GI50 [2]. Values come first.

microsomal CLint at 1 μM [1, 3] [µL/min/mg] | half-life at 1 μM [1, 4] [h] | microsomal CLint at 1 μM [1, 5] [µL/min/mg] | half-life at 1 μM [1, 6] [h] | microsomal CLint at 1 μM [1, 7] [µL/min/mg] | half-life at 1 μM [1, 8] [h] | GI50 [2] [nM] | Compound
8.5 | 2.72 | 22 | 1.05 | 21.4 | 1.08 | 46.5 | [2H]C([2H])([2H])NC(=O)c1cnc2nc1Nc1cc(cc(-c3ncn(C)n3)c1OC)COCc1cc(cc(F)c1F)N2 [Example 78, 18,19-Difluoro-10-methoxy-N-(methyl-d3)-11-(1-methyl-1H-1,2,4-triazol-3-yl)-15-oxa-2,4,8,23-tetraazatetracyclo[15.3.1.1^{3,7}.1^{9,13}]tricosa-1(20),3,5,7(23),9(22),10,12,17(21),18-nonaene-6-carboxamide]
27.2 | 0.85 | 74.6 | 0.31 | 63.5 | 0.364 | 21.6 | [2H]C([2H])([2H])NC(=O)c1cnc(Nc2cccc(F)n2)cc1Nc1cn(C)c2c(Cl)cn(CC)c(=O)c12 [Example 161, 4-((7-Chloro-5-ethyl-1-methyl-4-oxo-4,5-dihydro-1H-pyrrolo[3,2-c]pyridin-3-yl)amino)-6-((6-fluoropyridin-2-yl)amino)-N-(methyl-d3)nicotinamide]
12.3 | 1.88 | 20.5 | 1.12 | 19.6 | 1.18 | 58.7 | [2H]C([2H])([2H])NC(=O)c1cnc2nc1Nc1cc(cc(-c3ncn(C)n3)c1OC)COCc1cc(ccc1F)N2 [Example 76, 18-Fluoro-10-methoxy-N-(methyl-d3)-11-(1-methyl-1H-1,2,4-triazol-3-yl)-15-oxa-2,4,8,23-tetraazatetracyclo[15.3.1.1^{3,7}.1^{9,13}]tricosa-1(20),3,5,7(23),9(22),10,12,17(21),18-nonaene-6-carboxamide]
15.4 | 1.5 | 4.59 | 5.03 | 12.2 | 1.9 | 61.1 | [2H]C([2H])([2H])NC(=O)c1cnc2cc1Nc1cc(cc(-c3ncn(C)n3)c1OC)COCc1cc(F)cc(n1)N2 [Example 77, 19-Fluoro-10-methoxy-N-(methyl-d3)-11-(1-methyl-1H-1,2,4-triazol-3-yl)-15-oxa-2,4,8,21-tetraazatetracyclo[15.3.1.1^{3,7}.1^{9,13}]tricosa-1(21),3,5,7(23),9(22),10,12,17,19-nonaene-6-carboxamide]
12.1 | 1.91 | 82.1 | 0.282 | 101 | 0.229 | 36.7 | [2H]C([2H])([2H])NC(=O)c1cnc(Nc2cccc(C#N)n2)cc1Nc1cn(C)c2c(Cl)cn(CC)c(=O)c12 [Example 163, 4-((7-Chloro-5-ethyl-1-methyl-4-oxo-4,5-dihydro-1H-pyrrolo[3,2-c]pyridin-3-yl)amino)-6-((6-cyanopyridin-2-yl)amino)-N-(methyl-d3)nicotinamide]
117 | 0.198 | 11.9 | 1.95 | 43.9 | 0.526 | 38.8 | [2H]C([2H])([2H])NC(=O)c1cnc(Nc2ccc(F)cn2)cc1Nc1ccc2cnn(CC)c2c1OC [Example 42, 4-((1-Ethyl-7-methoxy-1H-indazol-6-yl)amino)-6-((5-fluoropyridin-2-yl)amino)-N-(methyl-d3)nicotinamide]
23.1 | 0.998 | 6.48 | 3.56 | 6.84 | 3.38 | 42.1 | [2H]C([2H])([2H])NC(=O)c1cnc2cc1Nc1cc(cc(-c3ncn(C)n3)c1OC)COCc1nc(ccc1F)N2 [Example 66, 18-Fluoro-10-methoxy-N-(methyl-d3)-11-(1-methyl-1H-1,2,4-triazol-3-yl)-15-oxa-2,4,8,21-tetraazatetracyclo[15.3.1.1^{3,7}.1^{9,13}]tricosa-1(20),3,5,7(23),9(22),10,12,17(21),18-nonaene-6-carboxamide]
30.8 | 0.751 | 9.58 | 2.41 | 48.5 | 0.477 | 85.2 | [2H]C([2H])([2H])NC(=O)c1cnc(Nc2ccn(C)n2)cc1Nc1ccc2cnn(CC)c2c1OC [Example 43, 4-((1-Ethyl-7-methoxy-1H-indazol-6-yl)amino)-N-(methyl-d3)-6-((1-methyl-1H-pyrazol-3-yl)amino)nicotinamide]
1.92 | 12 |  | > 2 | 3.32 | 6.97 | 79.9 | [2H]C([2H])([2H])NC(=O)c1cnc2cc1Nc1cc(cc(-c3ncn(C)n3)c1OC)COCc1cc(C(F)(F)F)cc(n1)N2 [Example 69, 10-Methoxy-N-(methyl-d3)-11-(1-methyl-1H-1,2,4-triazol-3-yl)-19-(trifluoromethyl)-15-oxa-2,4,8,21-tetraazatetracyclo[15.3.1.1^{3,7}.1^{9,13}]tricosa-1(21),3,5,7(23),9(22),10,12,17,19-nonaene-6-carboxamide]
